Experimental data published in US12150940B2, “WASp-protecting small molecules, compositions, methods and uses thereof in the treatment of innate and acquired immune-related disorders or conditions” (BAR ILAN UNIVERSITY, priority 2016, dated 2024).

Biological target: T1, WASp (Homo sapiens, UniProt P42768)
T1 construct: endogenous in cells; host or cells: primary human platelets from healthy donors
T1 sequence (P42768 1-502): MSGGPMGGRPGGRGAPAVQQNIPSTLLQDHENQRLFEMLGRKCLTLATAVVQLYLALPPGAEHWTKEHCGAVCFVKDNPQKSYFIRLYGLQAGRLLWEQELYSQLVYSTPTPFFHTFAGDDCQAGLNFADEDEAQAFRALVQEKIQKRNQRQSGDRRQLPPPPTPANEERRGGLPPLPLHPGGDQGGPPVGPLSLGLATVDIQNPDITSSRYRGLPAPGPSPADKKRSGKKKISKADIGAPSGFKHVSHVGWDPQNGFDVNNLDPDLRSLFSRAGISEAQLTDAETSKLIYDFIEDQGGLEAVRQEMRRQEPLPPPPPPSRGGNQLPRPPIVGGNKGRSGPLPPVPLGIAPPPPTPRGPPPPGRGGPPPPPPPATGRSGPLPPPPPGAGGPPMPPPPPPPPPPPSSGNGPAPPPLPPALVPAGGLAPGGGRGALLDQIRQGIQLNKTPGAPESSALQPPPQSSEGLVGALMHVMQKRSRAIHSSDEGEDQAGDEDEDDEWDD
Experiment: WASp expression in anti-CD3/anti-CD28-activated PBMCs (western blot)
Type: cell-based
Experimental: FIG. 4C-4D. Freshly-isolated PBMCs were incubated with SMC #6 or control at 37° C. for the indicated times. The PBMCs were either co-stimulated (+) with anti-CD3 and anti-CD28 or left unstimulated (−), followed by lysis. Lysates were analyzed for WASp expression by immunoblotting with anti-WASp and anti-GAPDH as loading control (FIG. 4C). Relative WASp expression was determined by densitometric analysis and is presented in a summarizing graph of FIG. 4D. Error bars represent the SE from the mean. P values were calculated versus DMSO-treated control cells by two-tailed Student's t-test, and is indicated therein. Data are representative of three independent experiments.
Jurkat T-cells (FIG. 5A) or Freshly-isolated PBMCs (FIG. 5B) were incubated for 15 min at 37° C. with either control or the indicated WASp-binding SMCs, followed by co-stimulation with anti-CD3 and anti-CD28 and lysis. Freshly-isolated platelets were incubated for 15 min at 37° C. with either control or the indicated WASp-binding SMCs, followed by stimulation with TRAP-6 (10 μM) and lysis (FIG. 5C). Lysates were analyzed for WASp expression by immunoblotting with anti-WASp and anti-GAPDH as loading control. Western blot is representative of three independent experiments. […] Relative WASp expression was determined by densitometric analysis. Error bars represent the SE from the mean. […]

WASp degradation in PBMCs (after 15 min of incubation): attenuated WASp degradation
WASp degradation in PBMCs (after 2 h of incubation, compared with 15 min): more pronounced
SMILES: CC(=O)N[C@H]1C[C@@H](c2ccc3c(c2)nnn3C)O[C@@H](c2ccc(Cl)cc2)C1 [SMC #6, N-[(2R,4R,6S)-2-(4-chlorophenyl)-6-(1-methylbenzotriazol-5-yl)oxan-4-yl]acetamide]
